Legend:
Format in all cases: functional
CCRF-CEM = assay: Cytotoxicity against human CCRF-CEM cells assessed as cell growth at 10 uM after 1 to 11 days by MTT assay; settings: read-out: Activity
SR [1] = assay: Cytotoxicity against human SR cells assessed as cell growth at 1 mM after 1 to 11 days by MTT assay; settings: read-out: Activity
NCI-H226 = assay: Cytotoxicity against human NCI-H226 cells assessed as cell growth at 1 mM after 1 to 11 days by MTT assay; settings: read-out: Activity
M14 = assay: Cytotoxicity against human M14 cells assessed as cell growth at 10 uM after 1 to 11 days by MTT assay; settings: read-out: Activity
TK-10 [2] = assay: Cytotoxicity against human TK10 cells assessed as cell growth at 100 uM after 1 to 11 days by MTT assay; settings: read-out: Activity
LOX IMVI = assay: Cytotoxicity against human LOXIMVI cells assessed as cell growth at 1 uM after 1 to 11 days by MTT assay; settings: read-out: Activity
OVCAR-3 = assay: Cytotoxicity against human OVCAR-3 cells assessed as cell growth at 1 mM after 1 to 11 days by MTT assay; settings: read-out: Activity
NCI-H522 [3] = assay: Cytotoxicity against human NCI-H522 cells assessed as cell growth at 1 uM after 1 to 11 days by MTT assay; settings: read-out: Activity
COLO 205 = assay: Cytotoxicity against human COLO205 cells assessed as cell growth at 0.1 uM after 1 to 11 days by MTT assay; settings: read-out: Activity
SK-MEL-28 = assay: Cytotoxicity against human SK-MEL-28 cells assessed as cell growth at 0.1 uM after 1 to 11 days by MTT assay; settings: read-out: Activity
TK-10 [4] = assay: Cytotoxicity against human TK10 cells after 1 to 11 days by MTT assay
SR [5] = assay: Cytotoxicity against human SR cells assessed as cell growth at 0.1 uM after 1 to 11 days by MTT assay; settings: read-out: Activity
A498 = assay: Cytotoxicity against human A498 cells assessed as cell growth at 0.1 uM after 1 to 11 days by MTT assay; settings: read-out: Activity
NCI-H322M [6] = assay: Cytotoxicity against human NCI-H322M cells assessed as cell growth at 0.1 uM after 1 to 11 days by MTT assay; settings: read-out: Activity
SF-268 = assay: Cytotoxicity against human SF268 cells assessed as cell growth at 1 uM after 1 to 11 days by MTT assay; settings: read-out: Activity
U-251 [7] = assay: Cytotoxicity against human U251 cells assessed as cell growth at 10 uM after 1 to 11 days by MTT assay; settings: read-out: Activity
SW-620 = assay: Cytotoxicity against human SW620 cells assessed as cell growth at 100 uM after 1 to 11 days by MTT assay; settings: read-out: Activity
786-0 [8] = assay: Cytotoxicity against human 786-0 cells assessed as cell growth at 1 uM after 1 to 11 days by MTT assay; settings: read-out: Activity
NCI-H23 = assay: Cytotoxicity against human NCI-H23 cells after 1 to 11 days by MTT assay
RXF 393 [9] = assay: Cytotoxicity against human […] cells after 1 to 11 days by MTT assay
MOLT-4 = assay: Cytotoxicity against human MOLT4 cells assessed as cell growth at 10 uM after 1 to 11 days by MTT assay; settings: read-out: Activity
RXF 393 [10] = assay: Cytotoxicity against human […] cells assessed as cell growth at 1 uM after 1 to 11 days by MTT assay; settings: read-out: Activity
PC-3 = assay: Cytotoxicity against human PC3 cells assessed as cell growth at 100 uM after 1 to 11 days by MTT assay; settings: read-out: Activity
UO-31 [11] = assay: Cytotoxicity against human UO31 cells assessed as cell growth at 1 mM after 1 to 11 days by MTT assay; settings: read-out: Activity
UO-31 [12] = assay: Cytotoxicity against human UO31 cells after 1 to 11 days by MTT assay
NCI-H460 [13] = assay: Cytotoxicity against human NCI-H460 cells after 1 to 11 days by MTT assay
K562 = assay: Cytotoxicity against human K562 cells assessed as cell growth at 1 uM after 1 to 11 days by MTT assay; settings: read-out: Activity
KM12 = assay: Cytotoxicity against human KM12 cells assessed as cell growth at 1 mM after 1 to 11 days by MTT assay; settings: read-out: Activity
MDA-MB-231 = assay: Cytotoxicity against human MDA-MB-231 cells assessed as cell growth at 100 uM after 1 to 11 days by MTT assay; settings: read-out: Activity
UO-31 [14] = assay: Cytotoxicity against human UO31 cells assessed as cell growth at 0.1 uM after 1 to 11 days by MTT assay; settings: read-out: Activity
U-251 [15] = assay: Cytotoxicity against human U251 cells assessed as cell growth at 100 uM after 1 to 11 days by MTT assay; settings: read-out: Activity
UACC-62 = assay: Cytotoxicity against human UACC62 cells assessed as cell growth at 1 mM after 1 to 11 days by MTT assay; settings: read-out: Activity
IGROV-1 = assay: Cytotoxicity against human IGROV1 cells assessed as cell growth at 10 uM after 1 to 11 days by MTT assay; settings: read-out: Activity
Malme-3M = assay: Cytotoxicity against human MALME-3M cells assessed as cell growth at 10 uM after 1 to 11 days by MTT assay; settings: read-out: Activity
RPMI-8226 = assay: Cytotoxicity against human RPMI8226 cells assessed as cell growth at 100 uM after 1 to 11 days by MTT assay; settings: read-out: Activity
NCI-H460 [16] = assay: Cytotoxicity against human NCI-H460 cells assessed as cell growth at 1 uM after 1 to 11 days by MTT assay; settings: read-out: Activity
MDA-MB-468 = assay: Cytotoxicity against human MDA-MB-468 cells assessed as cell growth at 10 uM after 1 to 11 days by MTT assay; settings: read-out: Activity
HCC 2998 = assay: Cytotoxicity against human HCC2998 cells assessed as cell growth at 1 mM after 1 to 11 days by MTT assay; settings: read-out: Activity
NCI-H322M [17] = assay: Cytotoxicity against human NCI-H322M cells assessed as cell growth at 10 uM after 1 to 11 days by MTT assay; settings: read-out: Activity
OVCAR-8 = assay: Cytotoxicity against human OVCAR8 cells assessed as cell growth at 100 uM after 1 to 11 days by MTT assay; settings: read-out: Activity
NCI-H522 [18] = assay: Cytotoxicity against human NCI-H522 cells assessed as cell growth at 10 uM after 1 to 11 days by MTT assay; settings: read-out: Activity
786-0 [19] = assay: Cytotoxicity against human 786-0 cells assessed as cell growth at 100 uM after 1 to 11 days by MTT assay; settings: read-out: Activity
SN12C = assay: Cytotoxicity against human SN12C cells assessed as cell growth at 10 uM after 1 to 11 days by MTT assay; settings: read-out: Activity
NCI/ADR-RES = assay: Cytotoxicity against human NCI/ADR-RES cells assessed as cell growth at 100 uM after 1 to 11 days by MTT assay; settings: read-out: Activity
[20] = read-out: LC50 (the source's name)

O=C1Nc2ncccc2/C1=C1/Nc2ccccc2/C1=N\O
growth at 10 µM (CCRF-CEM): 82%
growth at 1000 µM (SR [1]): 26%
growth at 1000 µM (NCI-H226): 13%
growth at 10 µM (M14): 86%
growth at 100 µM (TK-10 [2]): 49%
growth at 1 µM (LOX IMVI): 97%
growth at 1000 µM (OVCAR-3): 51%
growth at 1 µM (NCI-H522 [3]): 99%
growth at 0.1 µM (COLO 205): 96%
growth at 0.1 µM (SK-MEL-28): 88%
GI50 (TK-10 [4]): 9.72 µM
TGI (TK-10 [4]): > 100 µM
CC50 (TK-10 [4]; [20]): > 100 µM
growth at 0.1 µM (SR [5]): 109%
growth at 0.1 µM (A498): 76%
growth at 0.1 µM (NCI-H322M [6]): 95%
growth at 1 µM (SF-268): 99%
growth at 10 µM (U-251 [7]): 89%
growth at 100 µM (SW-620): 43%
growth at 1 µM (786-0 [8]): 115%
GI50 (NCI-H23): > 100 µM
TGI (NCI-H23): > 100 µM
CC50 (NCI-H23; [20]): > 100 µM
GI50 (RXF 393 [9]): 1.22 µM
TGI (RXF 393 [9]): > 100 µM
CC50 (RXF 393 [9]; [20]): > 100 µM
growth at 10 µM (MOLT-4): 70%
growth at 1 µM (RXF 393 [10]): 94%
growth at 100 µM (PC-3): 44%
growth at 1000 µM (UO-31 [11]): 11%
GI50 (UO-31 [12]): 1.58 µM
TGI (UO-31 [12]): > 100 µM
CC50 (UO-31 [12]; [20]): > 100 µM
GI50 (NCI-H460 [13]): 7.02 µM
TGI (NCI-H460 [13]): > 100 µM
CC50 (NCI-H460 [13]; [20]): > 100 µM
growth at 1 µM (K562): 76%
growth at 1000 µM (KM12): 6%
growth at 100 µM (MDA-MB-231): 40%
growth at 0.1 µM (UO-31 [14]): 85%
growth at 100 µM (U-251 [15]): 55%
growth at 1000 µM (UACC-62): 25%
growth at 10 µM (IGROV-1): 60%
growth at 10 µM (Malme-3M): 91%
growth at 100 µM (RPMI-8226): 2%
growth at 1 µM (NCI-H460 [16]): 105%
growth at 10 µM (MDA-MB-468): 80%
growth at 1000 µM (HCC 2998): 36%
growth at 10 µM (NCI-H322M [17]): 56%
growth at 100 µM (OVCAR-8): 50%
growth at 10 µM (NCI-H522 [18]): 99%
growth at 100 µM (786-0 [19]): 41%
growth at 10 µM (SN12C): 81%
growth at 100 µM (NCI/ADR-RES): 57%
